The text below walks through data of PMC8723806 (Journal of the Iranian Chemical Society, 2022).

SMILES strings stand for the structures.

One assay deals with T1, COX-2 (Ovis aries, UniProt P79208).
T1 sequence (P79208 17-603): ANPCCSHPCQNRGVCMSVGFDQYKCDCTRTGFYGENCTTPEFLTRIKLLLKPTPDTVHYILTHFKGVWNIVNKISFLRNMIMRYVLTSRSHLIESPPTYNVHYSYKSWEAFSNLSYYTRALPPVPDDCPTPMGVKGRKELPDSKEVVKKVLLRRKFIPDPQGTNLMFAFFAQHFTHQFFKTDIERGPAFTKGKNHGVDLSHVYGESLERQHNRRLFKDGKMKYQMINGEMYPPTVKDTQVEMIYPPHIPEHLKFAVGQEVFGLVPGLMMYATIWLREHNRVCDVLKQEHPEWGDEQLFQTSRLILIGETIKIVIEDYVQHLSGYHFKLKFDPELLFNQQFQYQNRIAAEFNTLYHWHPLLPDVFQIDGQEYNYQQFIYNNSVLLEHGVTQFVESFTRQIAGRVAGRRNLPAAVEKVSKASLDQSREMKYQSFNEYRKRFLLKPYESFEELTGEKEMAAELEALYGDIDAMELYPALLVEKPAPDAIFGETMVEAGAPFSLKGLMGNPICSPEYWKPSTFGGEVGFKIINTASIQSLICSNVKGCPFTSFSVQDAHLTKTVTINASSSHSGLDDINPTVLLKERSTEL
The assay can be described thus: In vitro COX-2 inhibition, colorimetric enzyme immune assay. The following applies: for COX-2 SI (COX-1 IC50/COX-2 IC50): in vitro COX-2 selectivity index; for COX-2 inhibition, in words: compared with celecoxib. It counts as biochemical, ovine.

The next assay concerns the target T2, COX-1 (Ovis aries, UniProt P05979).
T2 sequence (P05979 25-600): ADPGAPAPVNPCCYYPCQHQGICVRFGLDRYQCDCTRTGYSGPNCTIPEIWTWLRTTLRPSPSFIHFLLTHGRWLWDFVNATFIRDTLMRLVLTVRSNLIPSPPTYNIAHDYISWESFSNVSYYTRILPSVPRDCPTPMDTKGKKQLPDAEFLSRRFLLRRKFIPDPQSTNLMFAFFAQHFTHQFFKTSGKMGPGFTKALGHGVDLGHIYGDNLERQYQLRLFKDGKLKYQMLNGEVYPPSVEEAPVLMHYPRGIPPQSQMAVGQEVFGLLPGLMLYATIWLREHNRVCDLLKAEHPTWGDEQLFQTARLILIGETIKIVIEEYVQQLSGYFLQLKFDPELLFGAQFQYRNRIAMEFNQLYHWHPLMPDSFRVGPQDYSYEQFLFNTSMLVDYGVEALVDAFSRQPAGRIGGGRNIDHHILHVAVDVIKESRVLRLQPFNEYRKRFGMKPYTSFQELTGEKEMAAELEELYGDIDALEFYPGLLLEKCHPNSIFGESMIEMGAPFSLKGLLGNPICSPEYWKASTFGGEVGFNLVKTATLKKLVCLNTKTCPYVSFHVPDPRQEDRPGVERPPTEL
The assay is described as follows: In vitro COX-1 inhibition, colorimetric enzyme immune assay. It counts as biochemical, ovine.

As for `Fc1ccc(-c2ccccc2F)cc1OC(F)(F)F` [Compound 3c, 2,4'-Difluoro-3'-(trifluoromethoxy)biphenyl], on COX-2, the “COX-2 SI (COX-1 IC50/COX-2 IC50)” value stood at 109.9.

Consider `COc1ccccc1-c1ccc(F)c(C(F)(F)F)c1` [Compound 3g, 4'-Fluoro-2-methoxy-3'-(trifluoromethyl)biphenyl], for which the “COX-2 SI (COX-1 IC50/COX-2 IC50)” value at COX-2 is 76.84. In turn, `Fc1ccccc1-c1ccc(F)c(C(F)(F)F)c1` [Compound 3b, 2,4'-Difluoro-3'-(trifluoromethyl) biphenyl] came in with an IC50 on COX-1 of 11.2 µM. In addition, the “COX-2 SI (COX-1 IC50/COX-2 IC50)” value on COX-2 is 101.99. `O=[N+]([O-])c1ccc(-c2ccccc2F)cc1` [Compound 3a, 2-Fluoro-4'-nitrobiphenyl]: the “COX-2 SI (COX-1 IC50/COX-2 IC50)” value at COX-2 worked out at 84.16. Consider `COc1ccc(F)c(-c2ccccc2OC)c1` [Compound 3j, 2-Fluoro-2',5-dimethoxybiphenyl], for which, on COX-2, the “COX-2 inhibition, in words” value was “less potency”. Consider `O=[N+]([O-])c1cccc(-c2ccccc2F)c1F` [Compound 3d, 2,2'-Difluoro-3-nitrobiphenyl], for which the “COX-2 SI (COX-1 IC50/COX-2 IC50)” value at COX-2 worked out at 68.06. For `COc1ccccc1-c1ccc([N+](=O)[O-])cc1` [Compound 3f, 2-Methoxy-4'-nitrobiphenyl], at COX-2, the “COX-2 inhibition, in words” value is listed as “less potency” and the “COX-2 SI (COX-1 IC50/COX-2 IC50)” value was determined as 32.55. Take `COc1ccccc1-c1ccc(F)c(OC(F)(F)F)c1` [Compound 3h, 4'-Fluoro-2-methoxy-3'-(trifluoromethoxy)biphenyl]: on COX-2, the “COX-2 SI (COX-1 IC50/COX-2 IC50)” value worked out at 67.31. In the case of `COc1ccccc1-c1cccc([N+](=O)[O-])c1F` [Compound 3i, 2-Fluoro-2'-methoxy-3-nitrobiphenyl], at COX-2, the “COX-2 inhibition, in words” value was “less potency” and the “COX-2 SI (COX-1 IC50/COX-2 IC50)” value is 54.94.

As a reminder, the IC50 is the midpoint of a concentration-inhibition curve. A high value points to weaker potency.
